Patent publication US20250243242A1, “LEVODOPA TYROSINE POLYMORPHS” (NeuroDerm, Ltd., priority 2022, published 2025)
In brackets after ≈: the same amount, converted by molar mass. Blank lines part the entries; values can stand above or below the compound they belong to. Non-standard residues stand in square brackets, D forms with d. Residues, ends and D or L forms follow the SMILES beside them. Dopa = N[C@@H](Cc1ccc(O)c(O)c1)C(=O)O

Experiments:
Format in all cases: physicochemical
[1] = solid form stability upon storage at ambient conditions
[2] = dynamic vapor sorption (DVS); details: for hygroscopicity (in words): DVS, 40-80% RH; for hygroscopicity, weight gained: between 40-80% RH
Protocol: Dynamic vapour sorption (DVS) was performed using a Hiden Analytical Instruments IGAsorp Vapour Sorption Balance. Approximately 30 mg of sample was placed into a wire-mesh vapour sorption balance pan, loaded into the IGAsorp vapour sorption balance and held at 25° C.±0.1° C. The sample was subjected to a step profile in 10% increments from 40-90% RH, followed by desorption from 90-0% RH and a second sorption cycle form 0-40% RH. The equilibrium criterion was set to 99.0% step completion within a minimum of 60 minutes and a maximum of 5 hours for each increment. The weight change during the sorption cycle was monitored, allowing for the hygroscopic nature of the sample to be determined. The data collection interval was in seconds.

[3] = physical stability at 75% RH and 40° C.
[4] = aqueous solubility at various pH
[5] = between about 40 to about 80% RH at 25° C.

SMILES: N[C@@H](Cc1ccc(O)c(O)c1)C(=O)N[C@@H](Cc1ccc(O)cc1)C(=O)O [Form D, ((S)-2-amino-3-(3,4-dihydroxyphenyl)propanoyl)-L-tyrosine] (H-[Dopa]-Tyr-OH)
form conversion upon storage [1]: converted to Form N

SMILES: N[C@@H](Cc1ccc(O)c(O)c1)C(=O)N[C@@H](Cc1ccc(O)cc1)C(=O)O [Form C, ((S)-2-amino-3-(3,4-dihydroxyphenyl)propanoyl)-L-tyrosine] (H-[Dopa]-Tyr-OH)
form conversion upon storage [1]: converted to Form G

SMILES: N[C@@H](Cc1ccc(O)c(O)c1)C(=O)N[C@@H](Cc1ccc(O)cc1)C(=O)O [Form N, ((S)-2-amino-3-(3,4-dihydroxyphenyl)propanoyl)-L-tyrosine] (H-[Dopa]-Tyr-OH)
hydrate stability, water loss at low RH ([2]; DVS analysis, compared with Form G): more stable hydrate
hygroscopicity (in words) [2]: less hygroscopic
hygroscopicity, weight gained [2]: 0.6 % w/w
DVS reversable total mass change [2, 5]: about 0.6 wt. %
physical stability [3]: physically stable
solubility ([4]; aqueous medium, pH 3.27, aqueous buffer, pH of about 3.27): ~2860 µg/mL (≈ 7.94 mM)
solubility ([4]; aqueous medium, pH 3.83, aqueous buffer, pH of about 3.83): ~1640 µg/mL (≈ 4.55 mM)
solubility ([4]; aqueous medium, pH 3.92, aqueous buffer, pH of about 3.92): ~1540 µg/mL (≈ 4.27 mM)
solubility ([4]; aqueous medium, pH 4.68, aqueous buffer, pH of about 4.68): ~1330 µg/mL (≈ 3.69 mM)
solubility ([4]; aqueous medium, pH 5, aqueous buffer, pH of about 5.00): ~1290 µg/mL (≈ 3.58 mM)
solubility ([4]; aqueous medium, pH 6.04, aqueous buffer, pH of about 6.04): ~1370 µg/mL (≈ 3.8 mM)
solubility ([4]; aqueous solution, pH 1.17, simulated gastric fluid, pH of about 1.17): ~184000 µg/mL (≈ 512 mM)
solubility ([4]; aqueous solution, pH 2.6, aqueous buffer, pH of about 2.60): ~9460 µg/mL (≈ 26.3 mM)
solubility ([4]; aqueous solution, pH 3, aqueous buffer, pH of about 3.00): ~4060 µg/mL (≈ 11.3 mM)
solubility ([4]; aqueous solution, pH 6.78, aqueous buffer, pH of about 6.78): ~510 µg/mL (≈ 1.42 mM)
solubility ([4]; aqueous solution, pH 7.56, aqueous buffer, pH of about 7.56): ~18900 µg/mL (≈ 52.3 mM)
solubility ([4]; aqueous solution, pH 8.69, aqueous buffer, pH of about 8.69): ~111000 µg/mL (≈ 309 mM)
solubility ([4]; aqueous solution, pH 9.43, aqueous buffer, pH of about 9.43): ~58700 µg/mL (≈ 163 mM)
solubility ([4]; aqueous solution, pH 10.26, aqueous buffer, pH of about 10.26): ~155000 µg/mL (≈ 431 mM)

Continued, values first:

hygroscopicity (in words) [2]: hygroscopic
solid form by XRPD following DVS cycling ([2]; XRPD after DVS cycling): converted to Pattern N material
DVS reversable total mass change [2, 5]: about 4.19 wt. %
SMILES: N[C@@H](Cc1ccc(O)c(O)c1)C(=O)N[C@@H](Cc1ccc(O)cc1)C(=O)O [amorphous form, ((S)-2-amino-3-(3,4-dihydroxyphenyl)propanoyl)-L-tyrosine] (H-[Dopa]-Tyr-OH)

form conversion upon storage [1]: converted to Form B
DVS reversable total mass change ([2]; between about 0 to about 90% RH at 25° C.): about 8 wt. %
SMILES: N[C@@H](Cc1ccc(O)c(O)c1)C(=O)N[C@@H](Cc1ccc(O)cc1)C(=O)O [Form E, ((S)-2-amino-3-(3,4-dihydroxyphenyl)propanoyl)-L-tyrosine] (H-[Dopa]-Tyr-OH)

hygroscopicity, weight gained [2]: 2.6 % w/w
DVS reversable total mass change [2, 5]: about 2.6 wt. %
SMILES: N[C@@H](Cc1ccc(O)c(O)c1)C(=O)N[C@@H](Cc1ccc(O)cc1)C(=O)O [Form G, ((S)-2-amino-3-(3,4-dihydroxyphenyl)propanoyl)-L-tyrosine] (H-[Dopa]-Tyr-OH)
